{"source": "paper PMC4219987", "about": "(FEBS Open Bio, 2014)", "key": {"[1]": {"test_system": "LDH-2 (Ec. mundtii LDH-2)", "settings": "read-out: LDH-2 D241N / pH 5.5; pH 5.5 (MES-NaOH), 1.5 mM NADH, 20 mM pyruvate; allosteric activator"}, "[2]": {"test_system": "LDH-2 (Ec. mundtii LDH-2)", "settings": "read-out: LDH-2 D241N / pH 5.5, pH 5.5 (MES-NaOH), 3 mM FBP (activator)"}}, "note": "Where two headings read alike, the source gives them in different places."}
{"smiles": "O=P(O)(O)OC[C@H]1OC(O)(COP(=O)(O)O)[C@@H](O)[C@@H]1O", "note": "(stereo partly drawn) [FBP]", "values": [{"measurement": "EC50", "setting": "[1]", "result": "76 ± 45", "unit": "nM"}]}
{"smiles": "NC(=O)C1=CN([C@@H]2O[C@H](COP(=O)(O)OP(=O)(O)OC[C@H]3O[C@@H](n4cnc5c(N)ncnc54)[C@H](O)[C@@H]3O)[C@@H](O)[C@H]2O)C=CC1", "note": "[NADH]", "values": [{"measurement": "Km", "setting": "[2]; 20 mM pyruvate", "result": "0.2 ± 0.04", "unit": "mM"}]}
{"smiles": "CC(=O)C(=O)O", "note": "[pyruvate]", "values": [{"measurement": "Km", "setting": "[2]; 1.5 mM NADH", "result": "2.3 ± 0.4", "unit": "mM"}]}
